In patent US20230250096A1, “SUBSTITUTED PHENYL-1H-PYRROLO[2,3-c] PYRIDINE DERIVATIVES” (Janssen Pharmaceutica NV, priority 2021, published 2023):
pIC50: −log10 of the molar value. Read-outs that look alike come from different tables or passages of the source.

What was measured:
Type in all cases: cell-based, human
[1] = system: MOLM14 cells; test: Proliferation assay (spheroid confluence, 8 days), MOLM14; details: read-out: spheroid assay_MOLM14 IC50
Summary of the method: (§1)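 Cells grown as spheroids in ultra-low attachment round-bottom wells (200 MOLM14 or OCI-AML3, 300 KO-52 per well) with compound dilutions at 0.3% DMSO, 8 days, 37° C. Confluence from live-cell imaging at day 8; % effect normalized to DMSO and high-dose reference/staurosporin, absolute IC50 from variable-slope fit.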

[2] = system: KO-52 cells; test: Proliferation assay (spheroid confluence, 8 days), KO-52 control cell line; details: read-out: spheroid assay_KO-52 IC50
Summary of the method: as §1

[3] = system: MEIS1 mRNA expression; test: MEIS1 mRNA expression assay (Quantigene Singleplex) in MOLM14 cells; details: 48 hours incubation
Summary of the method: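 MOLM14 cells, 3,750/well, exposed to increasing compound concentrations for 48 h. MEIS1 mRNA measured by QuantiGene Singleplex branched-DNA hybridization (lysis 45 min, hybridization 18–22 h, both 55 °C), normalized to RPL28. IC50 fitted to background-corrected fold change versus DMSO.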

[4] = system: OCI-AML3 cells; test: Proliferation assay (spheroid confluence, 8 days), OCI-AML3; details: Homo sapiens, OCI-AML-3, OCI-AML3; read-out: spheroid assay_OCI-AML3 IC50
Description: The anti-proliferative effect of menin/MLL protein/protein interaction inhibitor test compounds was assessed in human leukemia cell lines. The cell line MOLM14 harbors a MLL translocation and expresses the MLL fusion protein MLL-AF9, respectively, as well as the wildtype protein from the second allele. OCI-AML3 cells that carry the NPM1c gene mutation were also tested. […] KO-52 was used as a control cell line containing two MLL (KMT2A) wildtype alleles in order to exclude compounds that display general cytotoxic effects.
MOLM14 cells were cultured in RPMI-1640 (Sigma Aldrich) supplemented with 10% heat-inactivated fetal bovine serum (HyClone), 2 mM L-glutamine (Sigma Aldrich) and 50 μg/ml gentamycin (Gibco). KO-52 and OCI-AML3 cell lines were propagated in alpha-MEM (Sigma Aldrich) supplemented with 20% heat-inactivated fetal bovine serum (HyClone), 2 mM L-glutamine (Sigma Aldrich) and 50 μg/ml gentamycin (Gibco).
In order to assess the anti-proliferative effects, 200 MOLM14 cells, 200 OCI-AML3 cells or 300 KO-52 cells were seeded in 200 μl media per well in 96-well round bottom, ultra-low attachment plates (Costar, catalogue number 7007). Cell seeding numbers were chosen based on growth curves to ensure linear growth throughout the experiment. Test compounds were added at different concentrations and the DMSO content was normalized to 0.3%. Cells were incubated for 8 days at 37° C. and 5% CO2. Spheroid like growth was measured in real-time by live-cell imaging (IncuCyteZOOM, Essenbio, 4×objective) acquiring images at day 8. Confluence (%) as a measure of spheroid size was determined using an integrated analysis tool.
In order to determine the effect of the test compounds over time, the confluence in each well as a measure of spheroid size, was calculated. Confluence of the highest dose of a reference compound was used as baseline for the LC (Low control) and the confluence of DMSO treated cells was used as 0% cytotoxicity (High Control, HC).
Absolute IC50 values were calculated as percent change in confluence as follows:
LC=Low Control: cells treated with e.g. 1 μM of the cytotoxic agent staurosporin, or e.g. cells treated with a high concentration of an alternative reference compound
HC=High Control: Mean confluence (%) (DMSO treated cells)
% Effect=100−(100*(Sample−LC)/(HC−LC))
GraphPad Prism (version 7.00) was used to calculate the IC50. Dose-response equation was used for the plot of % Effect vs Log10 compound concentration with a variable slope and fixing the maximum to 100% and the minimum to 0%.

Compound	pIC50 ([1]; Homo sapiens, MOLM-14, MOLM14)	pIC50 ([2]; Homo sapiens)	pIC50 ([3]; Homo sapiens, MOLM-14, 48 h)	pIC50 [4]	pIC50 ([1]; MOLM14)	pIC50 [2]	pIC50 [3]
COCCN(C)CCCC(C(C)C)N1CC[C@@H](Cc2cn(-c3ccc(F)cc3C(=O)N(C)C(C)C)c3cncc(C)c23)C1 (stereo partly shown) [Compound 1]	8.70	5.12	8.40				
Cc1cncc2c1c(CC1CN([C@@H](C(C)C)[C@H]3C[C@@H](N4CCC(S(C)(=O)=O)CC4)C3)C1)cn2-c1ccc(F)cc1C(=O)N(C)C(C)C [Compound 33a]	8.00	5.52	7.96				
CC(C)C([C@H]1C[C@@H](N(C)C)C1)N1CC(Cc2cn(-c3ccc(F)cc3C(=O)N(C)C(C)C)c3cncc(Cl)c23)C1 (stereo partly shown) [Compound 41]	7.85	5.85	7.82				
CCN(C(=O)c1cc(F)ccc1-n1cc(CC2CN(C(C(C)C)[C@H]3C[C@@H](N4C[C@H]5CN(C(C)=O)C[C@@H]5C4)C3)C2)c2c(C)cncc21)C(C)C (mixture of isomers) [Compound 38a]	> 8.74	6.10	8.22				
Cc1cncc2c1c(C[C@@H]1CCN(CC3CCOCC3)C1)cn2-c1ccc(F)cc1C(=O)N(C[C@H](C)O)C(C)C (single isomer, unassigned) [Compound 365b]	8.10		7.96	7.96			
COCC(=O)N1CCC(CN2CC(Cc3cn(-c4ccc(F)cc4C(=O)N(C)C(C)C)c4cncc(C)c34)C2)CC1 [Compound 66]	7.74	5.11	7.34				
CC(=O)N1CCC(CN2CC(Cc3cn(-c4ccc(F)cc4C(=O)N(C)C(C)C)c4cncc(C)c34)C2)CC1 [Compound 63]	7.28	5.23	7.08	6.92			
CCN(C(=O)c1cc(F)ccc1-n1cc(CC2CN(C(C(C)C)[C@H]3C[C@@H](N4CCN(S(C)(=O)=O)CC4)C3)C2)c2c(C)cncc21)C(C)C (stereo partly shown) [Compound 37a]	8.10	6.10	7.57				
CC(=O)N1CCN([C@H]2C[C@@H]([C@@H](C(C)C)N3CC(Cc4cn(-c5ccc(F)cc5C(=O)N(C)C(C)C)c5cncc(C)c45)C3)C2)CC1 (single isomer, unassigned) [Compound 32a]	8.30	5.26	7.66				
Cc1cncc2c1c(CC1CN(CC3CCOCC3)C1)cn2-c1ccc(F)cc1C(=O)N(C)C(C)C [Compound 61]	8.00	5.10	7.64				
Cc1cncc2c1c(C[C@H]1CCN(C[C@H]3CC[C@H](NS(C)(=O)=O)CC3)C1)cn2-c1ccc(F)cc1C(=O)N(C)C(C)C (single isomer, unassigned) [Compound 69]	8.30	4.96	7.77	7.68			
Cc1cncc2c1c(C[C@H]1CCN(C(C)C3CCOCC3)C1)cn2-c1ccc(F)cc1C(=O)N(C)C(C)C (mixture of isomers) [Compound 49]	8.52	5.52	7.77				
Cc1cncc2c1c(C[C@H]1CCN(CC3CCOCC3)C1)cn2-c1ccc(F)cc1C(=O)N(C)C(C)C (single isomer, unassigned) [Compound 43]	7.85	5.48	7.62	7.64			
CC(=O)N1C[C@@H]2CN([C@H]3C[C@@H]([C@@H](C(C)C)N4CC(Cc5cn(-c6ccc(F)cc6C(=O)N(C)C(C)C)c6cncc(Cl)c56)C4)C3)C[C@H]2C1 (single isomer, unassigned) [Compound 39a]	8.70	< 4.82	8.30				
CNC(=O)[C@H]1CC[C@H](CN2CCC(Cc3cn(-c4ccc(F)cc4C(=O)N(C)C(C)C)c4cncc(C)c34)C2)CC1 (single isomer, unassigned) [Compound 71]					7.08	< 4.82	7.32
CNC(=O)[C@H]1CC[C@H](CN2CCC(Cc3cn(-c4ccc(F)cc4C(=O)N(C)C(C)C)c4cncc(C)c34)C2)CC1 (single isomer, unassigned) [Compound 70]		5.07	7.32	7.17	7.40		
COCC(=O)N1CCC(CN2CCC(Cc3cn(-c4ccc(F)cc4C(=O)N(C)C(C)C)c4cncc(C)c34)C2)CC1 (single isomer, unassigned) [Compound 59]	7.96	5.68	8.05	7.92			
Cc1cncc2c1c(CC1CCN(CC3CCN(C(=O)CC#N)CC3)C1)cn2-c1ccc(F)cc1C(=O)N(C)C(C)C (single isomer, unassigned) [Compound 60]	7.89	5.57	8.15	7.89			
CC(=O)N1CCC(CN2CC[C@@H](Cc3cn(-c4ccc(F)cc4C(=O)N(C)C(C)C)c4cncc(C)c34)C2)CC1 (single isomer, unassigned) [Compound 50]	7.41	5.64	7.05				
Cc1cncc2c1c(C[C@@H]1CCN(CC3CCOCC3)C1)cn2-c1ccc(F)cc1C(=O)N(C)C(C)C (single isomer, unassigned) [Compound 42]	7.51	5.55	7.35				
Cc1cncc2c1c(C[C@H]1CCN(CC(C)C)C1)cn2-c1ccc(F)cc1C(=O)N(C)C(C)C (single isomer, unassigned) [Compound 45]	7.28	5.21	7.25				
Cc1cncc2c1c(C[C@H]1CCN([C@@H](C)C3CCOCC3)C1)cn2-c1ccc(F)cc1C(=O)N(C)C(C)C (single isomer, unassigned) [Compound 49b]	8.52	5.39	8.05	8.15			
Cc1cncc2c1c(C[C@@H]1CCN(CC3CCOCC3)C1)cn2-c1ccc(F)cc1C(=O)N(CCO)C(C)C [Compound 357]	8.10	5.52	7.82				
CC(=O)N1CCC(CN2CCC(Cc3cn(-c4ccc(F)cc4C(=O)N(C)C(C)C)c4cncc(C)c34)CC2)CC1 [Compound 58]	6.75	4.98	6.74				
Cc1cncc2c1c(CC1CN(CC3CCN(C(=O)CC#N)CC3)C1)cn2-c1ccc(F)cc1C(=O)N(C)C(C)C [Compound 67]	7.32	4.92	~7.17				
Cc1cncc2c1c(C[C@@H]1CCN(CC(C)C)C1)cn2-c1ccc(F)cc1C(=O)N(C)C(C)C (single isomer, unassigned) [Compound 44]	7.15	5.33	7.37				
